According to patent US5328913A, “Minoxidil analogs as inhibitors of cell proliferation and lysyl hydroxylase” (priority 1992, dated 1994):

What was measured:
Type in all cases: cell-based
lysyl hydroxylase [1] = assay: Lysyl hydroxylase activity in extracts of treated human skin fibroblasts (Example 2, pyridine, triazine and N-alkyl analogs)
Method: Cells were treated for 72 hr with minoxidil or its triazine analog at the indicated concentrations. The enzyme activities in extracts of treated cells were measured by tritium release assays (Murad and Pinnell, J. Biol. Chem. 262:11,973 (1987)) and are expressed as a percentage of zero-concentration values. PH, prolyl hydroxylase; LH, lysyl hydroxylase.
Cells were treated for 72 hr with various concentrations of minoxidil or its N-alkyl analogs as indicated. The enzyme activity in extracts of treated cells was measured by tritium release assays (Murad and Pinnell, J. Biol. Chem. 262:11,973 (1987)) and is expressed as a percentage of zero-concentration value. The minoxidil curve is reproduced from FIG. 4.
Cultures of human skin fibroblast (1.5×10^6 cells) were seeded onto 100-mm plates and incubated at 37° in Dulbecco's modified Eagle's medium supplemented with 20% calf serum. After 24 hr, the medium was replaced with medium supplemented with 0.5% heat-inactivated dialyzed calf serum. The incubation was continued for an additional 72 hr in the presence of 0.1-2 μM minoxidil analogs dissolved in 0.12N HCl; the final concentration of HCl was 0.0012N or 0.0024N. Cells treated with HCl only served as control. During the last 3 hr of incubation, cells received […] ascorbic acid to ensure complete hydroxylation of the polypeptide precursors of procollagen (Murad et al, J. Invest. Dermatol. 75:404 (1980)). At the end of the incubation period, cells were harvested by trypsinization and disrupted by sonication in a buffered medium (Murad et al, J. Biol. Chem. 262:11,973 (1987)).
Lysyl hydroxylase activity in extracts of treated cells was measured with an underhydroxylated procollagen substrate (Murad et al, J. Biol. Chem. 262:11,973 (1987)), which was prepared by labeling cultures of human skin fibroblasts with L-[4,5-^3 H]lysine in the presence of an iron chelator α,α'-dipyridyl (Murad and Pinnell, Conn. Tiss. Res. 13:181 (1985)). The amount of tritium released was quantitated as ^3 HO after vacuum distillation . Prolyl hydroxylase activity was similarly measured with an underhydroxylated procollagen substrate containing L-[4-^3 H]proline (Murad and Pinnell, J. Biol. Chem. 262:11973 (1987); Murad and Pinnell, Conn. Tiss. Res. 13:181 (1985)). The enzyme activities are based on a unit of soluble cell protein. The protein content of cell extracts was determined by a dye-binding techniques using Bio-Rad reagents (Bradford, Anal. Biochem. 72:248 (1976)).
Cells were treated for 72 hr with 1 mM minoxidil or its
structural analogs as indicated. The enzyme activity in extracts
of treated cells was measured by a tritium-release assay and is
expressed as a percentage of HCl-treated control.

[2] = tested on: non-proliferating fibroblasts; assay: Cytotoxicity to non-proliferating fibroblasts (cell number per dish); conditions: 5 mM, 72 hr
Description: Certain aspects of the present invention are described in greater detail in the non-limiting Examples that follow. (See also Murad et al, Arch. Biochem. Biophys. 292:234 (1992)).

lysyl hydroxylase [3] = assay: Lysyl hydroxylase activity in extracts of treated human skin fibroblasts (Example 1, tritium-release assay); conditions: for Lysyl hydroxylase activity (%): 1% ethanol

Nc1cc(N2CCCCC2)nc(N)[n+]1[O-] [Minoxidil]
decrease of the activity of lysyl hydroxylase (lysyl hydroxylase [1]; 1 mM, 72 hr): 73% | Lysyl hydroxylase activity (%) (lysyl hydroxylase [1]; 1 mM, 72 hr, % of HCl-treated control (Table III)): 27% | IC50 (lysyl hydroxylase [1]; 72 hr (FIG. 4, FIG. 5), read-out: concentration giving 50% inhibition (lysyl hydroxylase)): 200 µM | 10^-6 × No. of Cells/Dish [2]: 0.49 10^-6 × No. of Cells/Dish | Lysyl hydroxylase activity (%) (lysyl hydroxylase [3]; 1 nM, 72 h, % of ethanol-treated controls (Table II)): 19-39% | Lysyl hydroxylase activity (%) (lysyl hydroxylase [3]; 1 mM, 72 h, % of solvent-treated controls (Table I)): 28% | decrease of the level of lysyl hydroxylase activity (lysyl hydroxylase [3]; 72 h, 1 mM (Table I text)): 72% | IC50 (lysyl hydroxylase [3]; cultured fibroblasts, 72 h (FIG. 2), read-out: concentration required for 50% inhibition (lysyl hydroxylase)): 118 µM
